Test results: article PMC9430380, “Oridonin Attenuates Burkholderia cenocepacia Virulence by Suppressing Quorum-Sensing Signaling” (Microbiology Spectrum, 2022)

Columns and labels:
[1] = biological target: T1, RqpR; assay: ITC with purified protein (one-site model); EMSA shows inhibited binding to rpfFBC and cepI promoters; design: species or system Burkholderia cenocepacia
T1 construct: HIS-RqpR fusion protein (pDBHT2), cleaved with TEV protease

[2] = biological target: T2, CepR (Burkholderia cenocepacia, UniProt B4EMD0); assay: ITC with purified protein (one-site model); EMSA shows inhibited binding to bclACB promoter
T2 construct: HIS-CepR fusion protein (pDBHT2), cleaved with TEV protease
T2 sequence (B4EMD0 entry or part of it): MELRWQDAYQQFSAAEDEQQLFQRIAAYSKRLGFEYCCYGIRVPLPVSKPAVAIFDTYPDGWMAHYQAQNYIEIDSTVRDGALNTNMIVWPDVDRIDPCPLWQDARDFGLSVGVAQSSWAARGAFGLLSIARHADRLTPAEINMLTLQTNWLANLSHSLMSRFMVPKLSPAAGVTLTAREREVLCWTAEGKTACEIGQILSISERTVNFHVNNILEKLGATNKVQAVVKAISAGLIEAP

## C=C1C(=O)[C@]23[C@H](O)[C@H]1CC[C@H]2[C@@]12CO[C@]3(O)[C@@H](O)[C@@H]1C(C)(C)CC[C@@H]2O [oridonin]
[1]
  Kd: 8.28 ± 0.895 µM
[2]
  Kd: 13.6 ± 0.826 µM
